Source: patent US10023519B2, “Cyclobutane containing carboxylic acid GPR120 modulators” (BRISTOL-MYERS SQUIBB COMPANY, priority 2014, dated 2018)

biological target: human GPR120 (Homo sapiens (Human), UniProt Q5NUL3); assay: GPR120 pERK AlphaScreen SureFire Assay (human); type: cell-based; settings: CHO cells stably transfected with short form of human GPR120
Description: GPR120 activity was monitored by measuring phosphorylation of ERK (pERK), since G protein receptors are known to activate the ERK signaling cascade either directly and/or through recruitment of arrestin that serves as a scaffold for downstream signaling events.
GPR120 pERK AlphaScreen SureFire Assay
The human and mouse GPR120-mediated intracellular phosphorylated ERK assays were established using CHOA12 cells stably transfected with the short form of human or mouse GPR120 receptor. […] Cells were cryo preserved at a concentration of 2×10^7 cells/mL, in 90% Charcoal/Dextran FBS and 10% DMSO, and frozen in liquid nitrogen at a low passage number.
The flasks were placed in a tissue culture incubator overnight (37° C., 5% CO2). […] The next day, cells were serum starved in 30 μL of F-12 media without any serum or antibiotics for 2 hours at 37° C.
Cells were then stimulated with 50 nL of compound dilutions using ECHO liquid handler for 7 minutes at 37° C.
(§1) The lysis buffer was diluted 5-fold with water before use. […] The SureFire assay reagent mix was prepared by mixing 60 parts Reaction Buffer, 10 parts Activation Buffer, 1 part Donor Beads, 1 part Acceptor Beads (Perkin Elmer Cat. #TGRES10K). 3.5 μL/well of this reagent mix was manually added to the proxiplate with a multichannel pipettor. Plates were spun down at 1000 rpm for 2 minutes, followed by light-protected incubation at room temperature for 2 hours. The plates were read on the Alpha-technology compatible Envision multilabel plate reader using AlphaScreen protocol according to manufacturer's specifications. The agonist effect of compounds was expressed as 100× (average sample−average blank)/(average total−average blank) where sample is the luminescence activity in the presence of test compound, blank is equal to the luminescence activity in the presence of DMSO control and the total is signal induced by 50 μM linolenic acid as reference compound. Activation data for the test compound over a range of concentrations was plotted as percentage activation of the test compound (100%=maximum response). After correcting for background, EC50 values were determined.
The human and mouse GPR120-mediated intracellular phosphorylated ERK assays were also established using CHO-K1 cells stably transfected with the short form of human or mouse GPR120 receptor. […] Cells were cryo preserved at a concentration of 3×10^6 cells/mL, in 70% F-12, 20% Charcoal/Dextran FBS and 10% DMSO, and frozen in liquid nitrogen at a low passage number.
The flasks were placed in a tissue culture incubator overnight (37° C., 5% CO2).
Cells were then stimulated with 40 nL of compound dilutions using ECHO liquid handler for 7 minutes at 37° C.
as §1, with “compound.” for “compound. Activation data for the test compound over a range of concentrations was plotted as percentage activation of the test compound (100%=maximum response). After correcting for background, EC50 values were determined.”
Activation data for the test compound over a range of concentrations was plotted as percentage activation of the test compound (100%=maximum response). After correcting for background, EC50 values were determined.

Chain of human GPR120 (Q5NUL3 whole entry): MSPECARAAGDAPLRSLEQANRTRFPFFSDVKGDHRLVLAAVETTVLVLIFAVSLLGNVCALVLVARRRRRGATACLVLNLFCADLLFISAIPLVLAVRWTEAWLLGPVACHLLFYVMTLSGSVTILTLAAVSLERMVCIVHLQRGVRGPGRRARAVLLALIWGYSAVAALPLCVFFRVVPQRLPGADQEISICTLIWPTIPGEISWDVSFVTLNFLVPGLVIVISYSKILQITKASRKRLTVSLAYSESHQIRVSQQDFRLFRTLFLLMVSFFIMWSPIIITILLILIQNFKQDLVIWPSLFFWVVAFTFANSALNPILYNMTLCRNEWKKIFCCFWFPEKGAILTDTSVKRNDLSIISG

Molecule	EC50 [nM]
O=C(O)CO[C@H]1C[C@@H](c2ccc(-c3cccc(Cc4ccccc4)c3)cc2)C1 [Example 9, Cis-2-(3-(3′-benzyl-[1,1′-biphenyl]-4-yl)cyclobutoxy)acetic acid]	1590
O=C(O)CO[C@H]1C[C@@H](c2ccc(-c3cc(Oc4ccccn4)ccc3F)cc2)C1 [Example 26, Cis-2-(3-(2′-fluoro-5′-(pyridin-2-yloxy)-[1,1′-biphenyl]-4-yl)cyclobutoxy) acetic acid]	490
O=C(O)CO[C@H]1C[C@@H](c2ccc(-c3cc(Oc4cccc(F)c4)cnc3Cl)cc2)C1 [Example 22, Cis-2-(3-(4-(2-Chloro-5-(3-fluorophenoxy)pyridin-3-yl)phenyl)cyclobutoxy)acetic acid]	360
O=C(O)CO[C@H]1C[C@@H](c2ccc(-c3cc(Oc4cccc(F)c4)ccc3F)cc2)C1 [Example 32, Cis-2-(3-(2′-fluoro-5′-(3-fluorophenoxy)-[1,1′-biphenyl]-4-yl)cyclobutoxy)acetic acid]	230
O=C(O)CO[C@H]1C[C@H](c2ccc(-c3cc(Oc4ccccc4)ccc3F)cc2)C1 [Example 39, Trans-2-(3-(2′-fluoro-5′-phenoxy-[1,1′-biphenyl]-4-yl)cyclobutoxy)acetic acid]	410
CC(C)Oc1ccc(F)c(-c2ccc(CC3CC(C(=O)O)C3)cc2)c1 (single isomer, unassigned) [Example 49, 3-((2′-Fluoro-5′-isopropoxy-[1,1′-biphenyl]-4-yl)methyl)cyclobutanecarboxylic acid]	500
O=C(O)COCCC[C@H]1C[C@@H](c2cccc(Oc3ccccc3)c2)C1 [Example 58, 2-(3-(Cis-3-(3-phenoxyphenyl)cyclobutyl)propoxy)acetic acid]	420
C[C@]1(CCCOCCC(=O)O)C[C@@H](c2cccc(Oc3ccccc3)c2)C1 [Example 62, 3-(3-(Cis-1-methyl-3-(3-phenoxyphenyl)cyclobutyl)propoxy)propanoic acid]	570
O=C(O)COCCC[C@H]1C[C@H](c2cccc(Oc3ccccc3)c2)C1 [Example 56, 2-(3-(Trans-3-(3-phenoxyphenyl)cyclobutyl)propoxy)acetic acid]	170
O=C(O)CO[C@H]1C[C@@H](c2ccc(-c3cc(OC4CCCC4)ccc3F)cc2)C1 [Example 3, Cis-2-(3-(5′-(cyclopentyloxy)-2′-fluoro-[1,1′-biphenyl]-4-yl)cyclobutoxy)acetic acid]	410
CC(C)Oc1ccc(F)c(-c2ccc(C3CC4(C3)CC4C(=O)O)cc2)c1 (single isomer, unassigned) [Example 42, 5-(2′-Fluoro-5′-isopropoxy-[1,1′-biphenyl]-4-yl)spiro[2.3]hexane-1-carboxylic acid]	2210
O=C(O)COCCC1CC(OCc2cccc(Oc3ccccc3)c2)C1 (centres unmarked) [Example 57, 2-(2-(3-(3-Phenoxybenzyloxy)cyclobutyl)ethoxy)acetic acid]	700
O=C(O)COCCC[C@H]1C[C@@H](OCc2cccc(Oc3ccccc3)c2)C1 [Example 59, 2-(3-(Cis-3-(3-phenoxybenzyloxy)cyclobutyl)propoxy)acetic acid]	520
CC(C)Oc1ccc(F)c(-c2ccc(C3CC(CC(=O)O)C3)cc2)c1 (centres unmarked) [Example 43, 2-(3-(2′-Fluoro-5′-isopropoxy-[1,1′-biphenyl]-4-yl)cyclobutyl)acetic acid]	210
CC(C)Oc1ccc(F)c(-c2ccc(CC3CC(C(=O)O)C3)cc2)c1 (single isomer, unassigned) [Example 48, 3-((2′-Fluoro-5′-isopropoxy-[1,1′-biphenyl]-4-yl)methyl)cyclobutanecarboxylic acid]	790
O=C(O)C[C@H]1C[C@H](Oc2ccc(-c3cc(Oc4ccccc4)ccc3F)cc2)C1 [Example 66, Trans-2-(3-((2′-fluoro-5′-phenoxy-[1,1′-biphenyl]-4-yl)oxy)cyclobutyl)acetic acid]	110

Molecule	EC50 [nM]
O=C(O)CO[C@H]1C[C@@H](c2ccc(-c3cc(OC4CCCCC4)ccc3F)cc2)C1 [Example 33, Cis-2-(3-(5′-(cyclohexyloxy)-2′-fluoro-[1,1′-biphenyl]-4-yl)cyclobutoxy)acetic acid]	760
Cis-2-(3-(2′,3′-difluoro- 5′-(3- fluorophenoxy)-[1,1′- biphenyl]-4-yl)cyclobutoxy) acetic acid [Example 37]	590
COc1cc(OC(C)C)cc(-c2ccc([C@H]3C[C@@H](OCC(=O)O)C3)cc2)c1 [Example 19, Cis-2-(3-(3′-isopropoxy-5′-methoxy-[1,1′-biphenyl]-4-yl)cyclobutoxy)acetic acid]	1590
O=C(O)CO[C@H]1C[C@@H](c2ccc(-c3cc(OC4CCCOC4)ccc3F)cc2)C1 (stereo partly drawn) [Example 30, Cis2-(3-(2′-fluoro-5′-((tetrahydro-2H-pyran-3-yl)oxy)-[1,1′-biphenyl]-4-yl)cyclobutoxy)acetic acid]	1400
O=C(O)[C@H]1C[C@@H]1COCC1CC(c2cccc(Oc3ccccc3)c2)C1 (relative stereo) [Example 63, Trans-2-(((3-(3-phenoxyphenyl)cyclobutyl)methoxy)methyl)cyclopropanecarboxylic acid]	1260
O=C(O)CCC[C@H]1C[C@@H](OCc2cccc(Oc3ccccc3)c2)C1 [Example 53, 4-(Cis-3-(3-phenoxybenzyloxy)cyclobutyl)butanoic acid]	430
CC1(C)Cc2cc(Cl)cc(-c3ccc([C@H]4C[C@@H](OCC(=O)O)C4)cc3)c2O1 [Example 24, Cis-2-(3-(4-(5-chloro-2,2-dimethyl-2,3-dihydrobenzofuran-7-yl)phenyl)cyclobutoxy) acetic acid]	2900
CC(C)Oc1ccc(F)c(-c2ccc([C@H]3C[C@@H](CC(=O)O)C3)cc2)c1 [Example 45, 2-(Cis-3-(2′-fluoro-5′-isopropoxy-[1,1′-biphenyl]-4-yl)cyclobutyl)acetic acid]	120
C[C@]1(CCCOCC(=O)O)C[C@@H](c2cccc(Oc3ccccc3)c2)C1 [Example 60, 2-(3-(Cis-1-methyl-3-(3-phenoxyphenyl)cyclobutyl)propoxy)acetic acid]	740
C[C@]1(CCCOCC(=O)O)C[C@H](c2cccc(Oc3ccccc3)c2)C1 [Example 61, 2-(3-(Trans-1-methyl-3-(3-phenoxyphenyl)cyclobutyl)propoxy)acetic acid]	150
CC(C)Oc1ccc(F)c(-c2ccc(CC3CC(CC(=O)O)C3)cc2)c1 (centres unmarked) [Example 50, 2-(3-((2′-Fluoro-5′-isopropoxy-[1,1′-biphenyl]-4-yl)methyl)cyclobutyl)acetic acid]	650
CC(C)Oc1ccc(F)c(-c2ccc([C@H]3C[C@@H](OCC(=O)O)C3)cc2)c1 [Example 2, Cis-2-(3-(2′-fluoro-5′-isopropoxy-[1,1′-biphenyl]-4-yl)cyclobutoxy)acetic acid]	530
COc1ccc(OC(F)(F)F)cc1-c1ccc([C@H]2C[C@@H](OCC(=O)O)C2)cc1 [Example 16, Cis-2-(3-(2′-methoxy-5′-(trifluoromethoxy)-[1,1′-biphenyl]-4-yl)cyclobutoxy)acetic acid]	480
CC(C)Oc1ccc(F)c(-c2ccc([C@H]3C[C@H](CC(=O)O)C3)cc2)c1 [Example 44, 2-(Trans-3-(2′-fluoro-5′-isopropoxy-[1,1′-biphenyl]-4-yl)cyclobutyl)acetic acid]	140
CC(C)Oc1ccc(F)c(-c2ccc(C=C3CC(C(=O)O)C3)cc2)c1 (centres unmarked) [Example 47, 3-((2′-Fluoro-5′-isopropoxy-[1,1′-biphenyl]-4-yl)methylene)cyclobutanecarboxylic acid]	460
O=C(O)[C@H]1C[C@@H](Oc2ccc(-c3cc(Oc4ccccc4)ccc3F)cc2)C1 [Example 65, Cis-3-((2′-fluoro-5′-phenoxy-[1,1′-biphenyl]-4-yl)oxy)cyclobutanecarboxylic acid]	2270
